Experimental findings from patent US6852337B2, “Carvedilol-galenics” (Roche Diagnostics GmbH, priority 1998, dated 2005) are described below.

The nature of this data set: In-vitro dissolution rate, USP XXII paddle method, aqueous buffer pH 4.5. The class given is physicochemical. The text has this: In the case of drugs which cannot develop their action in the gastrointestinal zone itself, release from the drug form in the gastrointestinal tract and the subsequent resorption are the necessary condition for a therapeutic effect. Problems arise in this connection with those active substances which, because of their poor solubility or their low dissolution speed, attain so low a concentration in the gastrointestinal tract in the aqueous medium or because of obstructed release from the system of the other adjuvants, that the dissolution of the active substance is the step which determines the rate in connection with the resorption. […] The solubility and release rate are determined by standard methods, e.g. in accordance with the paddle method of USP XXII.
The in-vitro dissolution rates in this and the following examples were determined in accordance with USP XXII, paddle method in an aqueous buffer pH 4.5

For the compound `OC(COc1cccc2[nH]ccc12)CN1CCC(COc2ccccc2)CC1` (centres unmarked) [Active substance A, 4-[2-hydroxy-3-[4-(phenoxymethyl)piperidino]-propoxy]-indole], the “In-vitro dissolution rate after 10 minutes” value stood at 31%, the “In-vitro dissolution rate after 20 minutes” value was 43%, the “In-vitro dissolution rate after 30 minutes” value turned out to be 50% and the “In-vitro dissolution rate after 60 minutes” value stood at 58%.

For the compound `COc1ccccc1OCCNCC(O)COc1cccc2[nH]c3ccccc3c12` (centres unmarked) [Active substance B, carvedilol], the “In-vitro dissolution rate after 10 minutes” value is 36%, the “In-vitro dissolution rate after 20 minutes” value is on record as 46%, the “In-vitro dissolution rate after 30 minutes” value was found to be 49% and the “In-vitro dissolution rate after 60 minutes” value is listed as 56%.
